Patent US20100113527A1, “CRYSTALLINE FORMS OF DEXLANSOPRAZOLE” (Teva Pharmaceutical Industries Ltd., priority 2008, published 2010)

Assay: Stability of crystalline form against polymorphic transformation at 60% relative humidity (PXRD comparison, FIG. 2)
Type: physicochemical
Excerpt: FIG. 2 illustrates an X-ray powder diffraction pattern of form X of dexLansoprazole compared with the same form X after a week at 60% relative humidity.
As used herein in connection with form X, the term “stable” refers to stability against transformation, in which no more than about 20% of a polymorphic form transforms to another form under no less than about 60% relative humidity at about room temperature. When made according to the preferred embodiments of the present invention, less than 20% of form X transforms to any other form upon exposure to a RH of 60% at room temperature for a period of 7 days.
For ARL Powder diffractometer (All XRD Figures except FIG. 13):
Sample: Spin/Oscillate mode Range: 2-40 degrees two-theta Scan mode: Continuous scan Step size: 0.05 deg Scan rate: 3 deg./min

Question: What does the source list for `Cc1c(OCC(F)(F)F)ccnc1C[S@@+]([O-])c1nc2ccccc2[nH]1` [form X, (R)-2-[(3-methyl-4-(2,2,2-trifluoroethoxy)pyridin-2-yl)methylsulfinyl]-1H-benzoimidazole]?
Answer: amount of the form that transforms to any other form (exposure to RH of 60% at room temperature for 7 days): less than 20%; stability of the crystalline form (PXRD pattern after storage) (relative humidity of 60%, room temperature, 7 days, PXRD, FIG. 2): retains its PXRD pattern
